Experimental data from patent US20200179319A1, “PHARMACEUTICAL FORMULATIONS AND THEIR USE” (Signum Biosciences, Inc., priority 2016, published 2020).

Tests used:
Type in all cases: physicochemical
[1] = Screening Study (Example 5): sulfoxide formed in API solution with each agent, HPLC; settings: for (% area sulfoxide for each agent/% area sulfoxide in Blank) / Average % area sulfoxide for 3 runs per agent: 24 hours exposed to air at room temperature, not protected from light; for % area sulfoxide relative to % area Control: Control: no agent, stored at 5° C. and protected from light; for Average % area sulfoxide for 3 runs per agent: pH 7.4 to 7.5 buffer, API disodium salt solution plus agent
Procedure: A buffer solution was prepared by adding 0.72 g of Na2HPO4, 0.24 g KH2PO4 and 500 mL of deionized water into a container and mixing. The pH of the mixture was adjusted to 7.4 to 7.5 using NaOH and H3PO4.
(§1) A solution of each agent in the table below was prepared by adding 500 mg or each agent into a 25 mL volumetric flask and filling the flask to volume by the addition of the prepared buffer solution.
A 6% solution of API was prepared by adding 3.0 g the disodium salt of 4-(((R)-1-carboxy-2-(((2E,6E)-3,7,11-trimethyldodeca-2,6,10-trien-1-yl)thio)ethyl)amino)-4-oxobutanoic acid to a 50 mL volumetric flask filling the flask to volume by the addition of argon-sparged methanol, followed by mixing.
(§2) A screen was performed for each agent as follows: (1) 2.5 mL of the stock solution of API and 2.5 mL of each agent was added into scintillation vial, the vial was capped and the contents were mixed (repeated three times for each agent); and (2) allowing each resulting mixture to sit for 24 hours exposed to air at room temperature and not protected from light. A blank solution was prepared (3×) by adding buffer solution into the 100 mL volumetric flask in place of the agent and was stored under the same conditions as the other samples, 24 hours exposed to air at room temperature and not protected from light. After 24 hours, the contents of each vial were transferred to a 100 mL volumetric flask and each volumetric flask was filled to volume by the addition of methanol, and an aliquot of each mixture was removed and analyzed by HPLC.
(§3) The area of the sulfoxide of 4-(((R)-1-carboxy-2-(((2E,6E)-3,7,11-trimethyldodeca-2,6,10-trien-1-yl)thio)ethyl)amino)-4-oxobutanoic acid produced in each solution was calculated as follows: % area sulfoxide=Rsulfoxide/(Rparent+Rsulfoxide), wherein Rsuffoxide=the area under the response of the sulfoxide in the HPLC trace, and Rparent=the area under the response of 4-(((R)-1-carboxy-2-(((2E,6E)-3,7,11-trimethyldodeca-2,6,10-trien-1-yl)thio)ethyl)amino)-4-oxobutanoic acid in the HPLC trace. The control sample in Table 8 contained no agent, was stored at 5° C. and protected from light.

[2] = Stability Study 2 conducted at 5° C.: storage stability of a formulation comprising the disodium salt, HPLC; settings: for weight percentage of the component, 1 months: 1 month at 5° C.; for weight percentage of the component, 2 months: 2 months at 5° C.; for weight percentage of the component, 3 months: 3 months at 5° C.; for weight percentage of the component, 6 months: 6 months at 5° C.; for weight percentage of the component, 9 months: 9 months at 5° C.; for weight percentage of the component, 12 months: 12 months at 5° C.; for weight percentage of the component, 18 months: 18 months at 5° C.; for weight percentage of the component, 24 months: 24 months at 5° C.; for weight percentage of the component, Initial: storage at 5° C.
Procedure: The stability of a formulation comprising the disodium salt of 4-(((R)-1-carboxy-2-(((2E,6E)-3,7,11-trimethyldodeca-2,6,10-trien-1-yl)thio)ethyl)amino)-4-oxobutanoic acid was determined after storage at 5° C. for a period of 1 month, 2 months, 3 months, 6 months, 9 months, 12 months, 18 months, and 24 months. In each case, the percentage of 4-(((R)-1-carboxy-2-(((2E,6E)-3,7,11-trimethyldodeca-2,6,10-trien-1-yl)thio)ethyl)amino)-4-oxobutanoic acid remaining at each time point was determined by use of HPLC. Each of the percentages in the table below are expressed at the weight percentage of the component as compared to the total weight of the composition.

[3] = Stability Study 1: storage stability of a formulation comprising the disodium salt, HPLC; settings: 25° C., heading 30° C.; for % weight in formulation after 1 month: after 1 month storage; for % weight in formulation after 3 months: after 3 months storage; for % weight in formulation after 6 months: after 6 months storage; for % weight in formulation after 9 months: after 9 months storage; for Initial (% weight of formulation): formulation comprising the disodium salt
Procedure: The stability of a formulation comprising the disodium salt of […] In each case, the percentage of 4-(((R)-1-carboxy-2-(((2E,6E)-3,7,11-trimethyldodeca-2,6,10-trien-1-yl)thio)ethyl)amino)-4-oxobutanoic acid remaining at each time point was determined by use of HPLC.

[4] = Screening Study (Example 3): sulfoxide formed in API solution with each agent, HPLC; settings: 24 hours exposed to air at room temperature, not protected from light; for Average % area sulfoxide for 3 runs per agent: API disodium salt solution plus agent
Procedure: A buffer solution was prepared by adding 0.72 g of Na2HPO4, 0.24 g KH2PO4 and 500 mL of deionized water into a container and mixing.
as §1
A 6% solution of API was prepared by adding 3.0 g the disodium salt of 4-(((R)-1-carboxy-2-(((2E,6E)-3,7,11-trimethyldodeca-2,6,10-trien-1-yl)thio)ethyl)amino)-4-oxobutanoic acid to a 50 mL volumetric flask and filling the flask to volume by the addition of methanol, followed by mixing.
as §2, with “a 100 mL volumetric flask” for “scintillation vial, the vial was capped”, “agent.” for “agent and was stored under the same conditions as the other samples, 24 hours exposed to air at room temperature and not protected from light.”, “hours,” for “hours, the contents of each vial were transferred to a 100 mL volumetric flask and”
as §3, with “trace.” for “trace. The control sample in Table 8 contained no agent, was stored at 5° C. and protected from light.”

[5] = API stock in argon-sparged methanol

SMILES | (% area sulfoxide for each agent/% area sulfoxide in Blank) [1, 5] | % area sulfoxide relative to % area Control [1] | Average % area sulfoxide for 3 runs per agent [1] [%] | weight percentage of the component, 1 months [2] [weight percentage] | weight percentage of the component, 2 months [2] [weight percentage] | weight percentage of the component, 3 months [2] [weight percentage] | weight percentage of the component, 6 months [2] [weight percentage] | weight percentage of the component, 9 months [2] [weight percentage] | weight percentage of the component, 12 months [2] [weight percentage] | weight percentage of the component, 18 months [2] [weight percentage] | weight percentage of the component, 24 months [2] [weight percentage] | weight percentage of the component, Initial [2] [weight percentage] | % weight in formulation after 1 month [3] [%] | % weight in formulation after 3 months [3] [%] | % weight in formulation after 6 months [3] [%] | % weight in formulation after 9 months [3] [%] | Initial (% weight of formulation) [3] [%] | % area sulfoxide relative to % area Control [4] | (% area sulfoxide for each agent/% area sulfoxide in Blank) [4] | Average % area sulfoxide for 3 runs per agent [4] [%] | also measured
CC(=O)Oc1c(C)c(C)c2c(c1C)CCC(C)(CCC[C@H](C)CCC[C@H](C)CCCC(C)C)O2 (some centres unmarked) [Vitamin E acetate] | 1.01 | 0.208 | 1.167 |  |  |  |  |  |  |  |  |  |  |  |  |  |  |  |  |  | 
COC(=O)c1ccc(O)cc1 [Methylparaben] |  |  |  | 0.17 | 0.17 | 0.17 | 0.18 | 0.17 | 0.17 | 0.17 | 0.15 | 0.17 | 0.17 | 0.17 | 0.17 | 0.16 | 0.17 |  |  |  | 
O=S([O-])([O-])=S.[Na+].[Na+] [Sodium thiosulfate] |  | 0.158 | 1.117 |  |  |  |  |  |  |  |  |  |  |  |  |  |  | 0.055 | 0.92 | 1.032 | (% area sulfoxide for each agent/% area sulfoxide in Blank) [1]: 0.96
CC(C)=CCC/C(C)=C/CC/C(C)=C/CSC[C@H](NC(=O)CCC(=O)O)C(=O)O [4-(((R)-1-carboxy-2-(((2E,6E)-3,7,11-trimethyldodeca-2,6,10-trien-1-yl)thio)ethyl)amino)-4-oxobutanoic acid] |  |  |  | 3.01 | 3.00 | 3.10 | 3.04 | 3.03 | 3.06 | 3.10 | 3.05 | 3.09 | 2.97 | 3.13 | 2.92 | 2.87 | 3.09 |  |  |  | 
Cc1cc(C(C)(C)C)c(O)c(C(C)(C)C)c1 [Butylated hydroxytoluene (BHT), Butylated hydroxytoluene] | 1.02 | 0.227 | 1.186 |  |  |  |  |  |  |  |  |  |  |  |  |  |  | 0.115 | 0.97 | 1.092 | 
CC(C)(C)c1cc(O)ccc1O [Tert-butylhydroquinone (TBHQ), Tert-butylhydroquinone] | 7.38 | 7.587 | 8.546 |  |  |  |  |  |  |  |  |  |  |  |  |  |  |  |  |  | 
CCCOC(=O)c1ccc(O)cc1 [Propylparaben] |  |  |  | 0.032 | 0.032 | 0.033 | 0.032 | 0.033 | 0.032 | 0.033 | 0.030 | 0.034 | 0.033 | 0.034 | 0.032 | 0.033 | 0.034 |  |  |  | 
O=C1O[C@H]([C@@H](O)CO)C(O)=C1O [Ascorbic acid] | 2.39 | 1.812 | 2.771 |  |  |  |  |  |  |  |  |  |  |  |  |  |  |  |  |  | 
O=S([O-])CO.[Na+] [sodium hydroxymethylsulfinate] |  |  |  |  |  |  |  |  |  |  |  |  |  |  |  |  |  | 0.571 | 1.37 | 1.548 | 
O=C(CO)[C@@H](O)[C@H](O)[C@H](O)CO [Fructose] |  |  |  |  |  |  |  |  |  |  |  |  |  |  |  |  |  | 0.146 | About 1 | 1.123 | 
CC(C)=CCC/C(C)=C/CC/C(C)=C/C[S+]([O-])C[C@H](NC(=O)CCC(=O)O)C(=O)O (stereo partly drawn) [Sulfoxide of 4-(((R)-1-carboxy-2-(((2E,6E)-3,7,11-trimethyldodeca-2,6,10-trien-1-yl)thio)ethyl)amino)-4-oxobutanoic acid] |  |  |  | 0.039 | 0.076 | 0.112 | 0.048 | 0.049 | 0.050 | 0.052 | 0.044 | 0.037 | 0.031 | 0.113 | 0.053 | 0.134 | 0.037 |  |  |  | 
